Data as given in patent US5484778A, “Phthalocyanine photosensitizers for photodynamic therapy and methods for their use” (priority 1993, dated 1996).
Like-named read-outs stand apart in the source and are kept apart here.

How the values were obtained:
[1] = test system: Chinese hamster V79-379 cells; assay: Growth delay of V79 cultures after red light (Table 1); type: cell-based; settings: for Growth Delay, efficiency relative to 1 μM AlPcCl: 18 h, 12 kJ/m^2 red light; for inhibition of V79 culture growth (in words): red light 12 kJ/m^2, three day period
Experimental: (§1) Chinese hamster V79-379 lung fibroblasts were grown in monolayer culture in McCoy's 5A medium (Gibco Laboratories, Grand Island, N.Y.) augmented with 10% calf serum and buffered with 20 mM HEPES (pH 7.4).
(§2) The cells were treated with 1 μM AlPcCl (from Eastman Kodak, Rochester, N.Y.) or with phthalocyanine compositions I-VI (0.5-1.0 μM final concentration in the medium) for 18 hours by adding the appropriate volume of a 1.0 mM stock solution in dimethylformamide (DMF) to the culture medium. The growth medium was replaced with 4 ml Hank's balanced salt solution (HBSS), and the cells were irradiated. The light source was a 500 W tungsten-halogen lamp located approximately 29 inches below the surface of a glass exposure tray. The visible light administered to the cells was filtered to allow passage of only that portion of the visible spectrum above 600 nm (Lee Primary red filter No. 106, Vincent Lighting, Cleveland, Ohio). The fluence rate was approximately 0.074 kJ/m^2 /s at the level of the cell monolayer.
At the time of light exposure, there were approximately 1.5×10^5 cells per 25 cm^2 flask. Following irradiation, the HBSS was replaced by 10 ml of fresh complete growth medium, and the cultures were returned to the 37° C. incubator. At various times before and after irradiation, duplicate cultures were trypsinized and counted. Controls included untreated cells and cells treated with light alone or drug alone. In addition, in each experiment, the drug to be tested was compared to a standard treatment, i.e. 1 μM AlPcCl for 18 hours followed by 12 kJ/m^2 light.
The inhibition of V79 culture growth was measured during a three day period following red light irradiation (12 kJ/m^2) of phthalocyanine-pretreated cells. With each of the active compounds, as well as with AlPcCl, there was an initial decrease in cell density, as dead cells became detached from the monolayer. Thereafter, the cell number per flask increased, as living cells grew and divided. The time for the cell density to recover to the level at the time of light exposure was considered the growth delay. […] The ratio of the growth delay for the test photosensitizer and the growth delay for AlPcCl measured in the same experiment is recorded in Table 1.

[2] = test system: Chinese hamster V79-379 cells; assay: Clonogenic cell survival / photocytotoxicity in V79 cells (Table 1, FIG. 1, FIG. 2); type: cell-based
Experimental: FIG. 1 is a graph illustrating the photodynamic efficacy of the various compositions of the present invention in comparison to AlPcCl. The phthalocyanine composition compounds of the present invention were tested for their photodynamic efficiency against Chinese hamster fibroblast V79 cells by colony formation. Monolayer cultures were treated with the indicated phthalocyanine composition for 18 hours, irradiated with various fluences of red light, and immediately trypsinized and replated at appropriate aliquots in triplicate. Colonies of at least 50 cells were counted after 7-10 days. The plating efficiency of the untreated cells was approximately 90%.
In this regard, in FIG. 2 the data of FIG. 1 were replotted as a function of the product of the amount of cell-associated phthalocyanine and the light fluence.
as §1, §2
Cells were irradiated at a density of approximately 2×10^6 per 25 cm^2 flask. Immediately after irradiation, the cell monolayer was treated with trypsin, and appropriate aliquots were plated in triplicate to give 100 to 200 colonies in each 10-cm Petri dish. Cell survival was determined by the ability of the cells to form colonies containing at least 50 cells. The response of cells treated with 1 μM AlPcCl and light was compared in each experiment.
Photocytotoxicity of the phthalocyanines compounds I to VI was also assessed by clonogenic assay (Table 1, FIG. 1). In all experiments, 1 μM AlPcCl was included for comparison purposes. From the survival curves (FIG. 1), the fluence reducing the cell survival to 10% (F10) was obtained. The ratio of the F10 for AlPcCl and the F10 for the test compound is recorded in Table 1.
In order to take differences in cellular uptake into consideration in the assessment of the relative efficiency of these phthalocyanines as photosensitizers of V79 cells, the survival data were replotted against the product of intracellular phthalocyanine concentration and light fluence (FIG. 2). From these curves, the product of intracellular concentration and light fluence reducing survival to 10% (CF10) was obtained, and comparisons of the values for AlPcCl and the test compounds are recorded in Table 1.

L5178Y cells = assay: Induction of apoptosis (DNA fragmentation) in L5178Y-R cells (Table 6); type: cell-based, mouse; settings: for induction of apoptosis: 1 μM at a fluence of 30 kJ/m^2
In short: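 Exponentially growing mouse lymphoma L5178Y-R cells loaded 18 hours with phthalocyanine at various concentrations, then irradiated with >600 nm red light (up to 30 kJ/m^2, ~74 W/m^2). DNA isolated 2 hours post-PDT, run on 1.5% agarose; value is minimum PDT dose (concentration × fluence) giving visible DNA ladder.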

RIF-1 tumors = assay: PDT of RIF-1 implanted tumors (Table 7); type: in vivo, C3H/HeN mice; settings: 1 mg/kg in corn oil; 675 nm, 135 J/cm^2
Experimental: The relative effectiveness at reducing tumor volume of selected phthalocyanine compounds at a given dosage was compared in vivo. RIF-1, i.e., radiation-induced fibrosarcoma, tumors were implanted into the backs of C3H/HeN mice. One tumor was implanted per mouse. Each of the phthalocyanine compounds listed in Table 7 was sonicated and vortexed in corn oil to produce a suspension. When the tumors reached […] in diameter and 2-3 mm in thickness, each mouse received 1 mg/kg in 0.1 ml of the corn oil, of the phthalocyanine suspension. For comparison, select mice received a conventional photosensitizer; either 5 mg/kg of chloroaluminum phthalocyanine tetrasulfonate, herein also referred to as "AlPcTS" in phosphate buffered saline or 5 mg/kg of Photofrin®-II in 5% dextrose. Twenty-four hours after the photosensitizers were administered, the tumors were irradiated with visible radiation delivered by an argon-pumped dye laser. The mice that received a phthalocyanine photosensitizer received light having a wavelength of 675 nm and the mice that received the Photofrin® II photosensitizer received light having a wavelength of 630 nm. Each tumor received 135 J/cm^2 of radiation. Tumor size was measured every day using calipers. The initial tumor volume was 50±10 mm^3. Tumor volume was calculated according to the hemiellipsoid model by the formula: [formula] Where l is length Where W is width

viruses = settings: New York Blood Center (Ben-Hur); cited from earlier work
[3] = white light
V79 cells [4] = assay: Clonogenicity, killing of V79 cells using photodynamic therapy (Table 3); type: cell-based, Chinese hamster
In short: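 V79 Chinese hamster lung fibroblasts were loaded with 0.5 or 1.0 μM phthalocyanine, then about 18 h later irradiated with increasing doses of 675 nm broad-band red light (tungsten-halogen lamp, 600 nm high-pass filter). Recorded value is the light dose killing 90% of cells, or, failing that, the maximum kill (% survival) and its dose.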

V79 cells [5] = assay: Uptake of additional phthalocyanines into V79 cells (Table 2); settings: for Uptake into V79 cells: 18 hours
Experimental: (§3) V79 cells Chinese hamster lung fibroblasts were cultured using the cell culture methods described above. […] When the filters were dry, the phthalocyanines were extracted into ethanol and the absorption determined at the peak wavelength, usually 668 nm.

V79 cells [6] = test system: V79 cells
Experimental: as §3

[7] = test system: Chinese hamster fibroblasts, i.e. V79 cells
Source text: Initially, applicants examined the photocytotoxicity of twenty-one phthalocyanines taken from a collection in the applicants' laboratories to Chinese hamster fibroblasts, i.e. V79 cells.

C[N+](C)(C)CCC[Si](C)(C)O[Si]1(O)n2c3c4ccccc4c2N=C2N=C(N=c4c5ccccc5c(n41)=NC1=NC(=N3)c3ccccc31)c1ccccc12.[I-] (stereo not shown) [Compound V, HOSiPcOSi(CH3)2 (CH2)3 N(CH3)3^+ I^-]
Growth Delay, efficiency relative to 1 μM AlPcCl [1]: 0
inhibition of V79 culture growth (in words) [1]: less inhibition of culture growth
CF10 (AlPcCl)/CF10 (Pc) ([2]; 1.0 μM, 18 h, CF10 = intracellular concentration x fluence reducing survival to 10%): 3.0
F10 (AlPcCl)/F10 (Pc) ([2]; 1.0 μM, 18 h, F10 = fluence reducing survival to 10%): 0.59
induction of apoptosis (L5178Y cells): did not induce apoptosis
Doubling Time of Initial Tumor Volume after PDT (RIF-1 tumors): 6 days
purging viruses from blood and/or blood components (viruses): effective at purging viruses from blood and/or blood components

CN(C)CCC[Si](C)(C)O[Si]1(C)n2c3c4ccccc4c2N=C2N=C(N=c4c5ccccc5c(n41)=NC1=NC(=N3)c3ccccc31)c1ccccc12 (stereo not shown) [Compound III, CH3 SiPcOSi(CH3)2 (CH2)3 N(CH3)2]
Growth Delay, efficiency relative to 1 μM AlPcCl [1]: 0.05
inhibition of V79 culture growth (in words) [1]: less inhibition of culture growth
photosensitizing efficiency / photocytotoxicity (in words) [2]: low activity
photolysis of solutions [3]: rapidly photolyzed by white light

CCCCCCCCCCCC[N+](C)(C)CCC[Si](C)(C)O[Si]1(O[Si](C)(C)CCC[N+](C)(C)CCCCCCCCCCCC)n2c3c4ccccc4c2N=C2N=C(N=c4c5ccccc5c(n41)=NC1=NC(=N3)c3ccccc31)c1ccccc12 [Compound XIV, SiPc[OSi(CH3)2 (CH2)3 N^+ (CH3)2 (CH2)11 CH3]2 2I^-]
Cell survival at highest light dose at 1 µM (V79 cells [4]; Cricetulus griseus, V79, read-out: Maximum Effect (% survival)): 93%
induction of apoptosis (L5178Y cells): did not induce apoptosis
purging viruses from blood and/or blood components (viruses): effective at purging viruses from blood and/or blood components
Uptake into V79 cells (V79 cells [5]; 1 μM): 0.03 ± 0.01 n Moles/10^6 cells
Uptake into V79 cells (V79 cells [5]; 4 μM): 0.05 ± 0.01 n Moles/10^6 cells
Uptake into V79 cells, composite value (V79 cells [5]; average of all data): < 0.05 n Moles/10^6 cells/μM
Uptake (from Table 2) (V79 cells [5]; repeated in Table 3): < 0.05 n Moles/10^6 cells/μM

CCCCCCCCCCCC[N+](C)(C)CCC[Si](C)(C)[O][Al]1[n]2c3c4ccccc4c2N=C2N=C(N=c4c5ccccc5c([n]41)=NC1=NC(=N3)c3ccccc31)c1ccccc12.[I-] [Compound XXI, AlPcOSi(CH3)2 (CH2)3 N^+ (CH3)2)(CH2)11 CH3 I^-]
LD 90 (V79 cells [4]; 0.5 μM, 18 h, light dose killing 90% of cells): 15 kJ/m^2
Minimum Demonstrated Condition to induce apoptosis: C × F (L5178Y cells; 0.5 μM): 7.5 μm × kJ/m^2
Minimum Demonstrated Condition to induce apoptosis: Fluence (L5178Y cells; 0.5 μM): 15.0 kJ/m^2
Uptake into V79 cells, composite value (V79 cells [6]): 1.3 n Moles/10^6 cells/μM
uptake by V79 cells (in words) (V79 cells [6]): taken up particulary well
purging viruses from blood and/or blood components (viruses): effective at purging viruses from blood and/or blood components

C[N+](C)(C)CCC[Si](C)(C)O[Si]1(O[Si](C)(C)CCC[N+](C)(C)C)n2c3c4ccccc4c2N=C2N=C(N=c4c5ccccc5c(n41)=NC1=NC(=N3)c3ccccc31)c1ccccc12.[I-].[I-] [Compound VI, SiPc[OSi(CH3)2 (CH2)3 N(CH3)3)^+ I^- ]2]
Growth Delay, efficiency relative to 1 μM AlPcCl [1]: 0.05
inhibition of V79 culture growth (in words) [1]: less inhibition of culture growth
photosensitizing efficiency / photocytotoxicity (in words) [2]: low activity
induction of apoptosis (L5178Y cells): did not induce apoptosis
purging viruses from blood and/or blood components (viruses): effective at purging viruses from blood and/or blood components

CCN(CC)CC(O)COCCC[Si](C)(C)O[Si]1(O)n2c3c4ccccc4c2N=C2N=C(N=c4c5ccccc5c(n41)=NC1=NC(=N3)c3ccccc31)c1ccccc12 (stereo not shown) [HOSiPcOSi(CH3)2 (CH2)3 OCH2 --CHOHCH2 N(C2 H5) 2]
photocytotoxicity (in words) [7]: excellent photocytotoxicity
uptake by V79 cells (in words) [7]: taken up efficiently by the Chinese hamster fibroblast V79 cells
